Results reported in the NIST ThermoML archive (doi:10.1021/je600515j).
Numbers after ± are expanded uncertainties.

What was measured:
[1] = relative permittivity at zero frequency (dimensionless); settings: 101.33 kPa, Liquid, dielectric analyzer
[2] = relative permittivity at zero frequency (dimensionless); xn = mol fraction of the nth substance listed; settings: 101 kPa, Liquid, dielectric analyzer

CC(O)CNCC(C)O (stereo unspecified) [N-(2-hydroxypropyl)-2-hydroxy-1-propanamine]
[1]
Settings | relative permittivity at zero frequency
303.15 K | 13.87 ± 0.28
308.15 K | 13.75 ± 0.28
313.15 K | 13.62 ± 0.27
318.15 K | 13.49 ± 0.27
323.15 K | 13.36 ± 0.27
328.15 K | 13.26 ± 0.27

OCCN(CCO)CCO [triethanolamine] + O
relative permittivity at zero frequency, [2]
Settings | 303.15 K | 308.15 K | 313.15 K | 318.15 K | 323.15 K | 328.15 K
x1 = 0.2 | 49.25 ± 0.99 | 48.14 ± 0.96 | 47.23 ± 0.94 | 46.33 ± 0.93 | 45.45 ± 0.91 | 44.63 ± 0.89
x1 = 0.4 | 36.34 ± 0.73 | 35.44 ± 0.71 | 34.53 ± 0.69 | 33.6 ± 0.67 | 32.73 ± 0.65 | 31.93 ± 0.64
x1 = 0.6 | 31.48 ± 0.63 | 30.66 ± 0.61 | 29.85 ± 0.6 | 29.05 ± 0.58 | 28.25 ± 0.57 | 27.51 ± 0.55
x1 = 0.8 | 29.67 ± 0.59 | 28.92 ± 0.58 | 28.17 ± 0.56 | 27.43 ± 0.55 | 26.69 ± 0.53 | 26.04 ± 0.52

CC(O)CNCC(C)O (stereo unspecified) [N-(2-hydroxypropyl)-2-hydroxy-1-propanamine] + O
relative permittivity at zero frequency, [2]
Settings | 303.15 K | 308.15 K | 313.15 K | 318.15 K | 323.15 K | 328.15 K
x1 = 0.2 | 41.34 ± 0.83 | 40.27 ± 0.81 | 39.35 ± 0.79 | 38.46 ± 0.77 | 37.74 ± 0.75 | 37.16 ± 0.74
x1 = 0.4 | 24.52 ± 0.49 | 24 ± 0.48 | 23.48 ± 0.47 | 23 ± 0.46 | 22.52 ± 0.45 | 22.19 ± 0.44
x1 = 0.6 | 18.46 ± 0.37 | 18.15 ± 0.36 | 17.84 ± 0.36 | 17.53 ± 0.35 | 17.2 ± 0.34 | 16.97 ± 0.34
x1 = 0.8 | 16.65 ± 0.33 | 16.45 ± 0.33 | 16.26 ± 0.33 | 16.05 ± 0.32 | 15.83 ± 0.32 | 15.66 ± 0.31

CN(CCO)CCO [N-methyldiethanolamine] + O
relative permittivity at zero frequency, [2]
Settings | 303.15 K | 308.15 K | 313.15 K | 318.15 K | 323.15 K | 328.15 K
x1 = 0.2 | 48.77 ± 0.98 | 47.54 ± 0.95 | 46.36 ± 0.93 | 45.14 ± 0.9 | 43.98 ± 0.88 | 42.68 ± 0.85
x1 = 0.4 | 33.92 ± 0.68 | 33.09 ± 0.66 | 32.16 ± 0.64 | 31.25 ± 0.63 | 30.37 ± 0.61 | 29.41 ± 0.59
x1 = 0.6 | 26.68 ± 0.53 | 26.03 ± 0.52 | 25.4 ± 0.51 | 24.69 ± 0.49 | 23.96 ± 0.48 | 23.21 ± 0.46
x1 = 0.8 | 23.44 ± 0.47 | 22.86 ± 0.46 | 22.31 ± 0.45 | 21.77 ± 0.44 | 21.15 ± 0.42 | 20.56 ± 0.41

OCCNCCO [diethanolamine] + O
relative permittivity at zero frequency, [2]
Settings | 303.15 K | 308.15 K | 313.15 K | 318.15 K | 323.15 K | 328.15 K
x1 = 0.2 | 52.65 ± 1.1 | 51.53 ± 1 | 49.58 ± 0.99 | 48.31 ± 0.97 | 46.78 ± 0.94 | 45.68 ± 0.91
x1 = 0.4 | 39.11 ± 0.78 | 38.06 ± 0.76 | 36.95 ± 0.74 | 35.81 ± 0.72 | 34.68 ± 0.69 | 33.73 ± 0.67
x1 = 0.6 | 30.57 ± 0.61 | 29.75 ± 0.6 | 28.91 ± 0.58 | 28.07 ± 0.56 | 27.36 ± 0.55 | 26.7 ± 0.53
x1 = 0.8 | 26.95 ± 0.54 | 26.41 ± 0.53 | 25.86 ± 0.52 | 25.42 ± 0.51 | 24.81 ± 0.5 | 24.13 ± 0.48

CC(C)(N)CO [2-amino-2-methylpropan-1-ol] + O
relative permittivity at zero frequency, [2]
Settings | 303.15 K | 308.15 K | 313.15 K | 318.15 K | 323.15 K | 328.15 K
x1 = 0.2 | 48.24 ± 0.96 | 47.33 ± 0.95 | 46.43 ± 0.93 | 45.46 ± 0.91 | 44.31 ± 0.89 | 43.13 ± 0.86
x1 = 0.4 | 33.65 ± 0.67 | 32.99 ± 0.66 | 32.33 ± 0.65 | 31.8 ± 0.64 | 31.15 ± 0.62 | 30.11 ± 0.6
x1 = 0.6 | 26.63 ± 0.53 | 26.17 ± 0.52 | 25.65 ± 0.51 | 25.14 ± 0.5 | 24.95 ± 0.5 | 24.37 ± 0.49
x1 = 0.8 | 23.35 ± 0.47 | 22.82 ± 0.46 | 22.28 ± 0.45 | 21.87 ± 0.44 | 21.42 ± 0.43 | 21.03 ± 0.42

OCCNCCO [diethanolamine]
[1]
Settings | relative permittivity at zero frequency
303.15 K | 24.69 ± 0.49
308.15 K | 24.3 ± 0.49
313.15 K | 23.86 ± 0.48
318.15 K | 23.28 ± 0.47
323.15 K | 22.63 ± 0.45
328.15 K | 22.13 ± 0.44

CC(O)CO (stereo unspecified) [1,2-propanediol]
[1]
Settings | relative permittivity at zero frequency
303.15 K | 27.87 ± 0.56
308.15 K | 27.13 ± 0.54
313.15 K | 26.43 ± 0.53
318.15 K | 25.76 ± 0.52
323.15 K | 25.08 ± 0.5
328.15 K | 24.57 ± 0.49

CC(C)(N)CO [2-amino-2-methylpropan-1-ol]
[1]
Settings | relative permittivity at zero frequency
303.15 K | 20.59 ± 0.41
308.15 K | 20.11 ± 0.4
313.15 K | 19.69 ± 0.39
318.15 K | 19.27 ± 0.39
323.15 K | 18.88 ± 0.38
328.15 K | 18.37 ± 0.37

CN(CCO)CCO [N-methyldiethanolamine]
[1]
Settings | relative permittivity at zero frequency
303.15 K | 21.84 ± 0.44
308.15 K | 21.33 ± 0.43
313.15 K | 20.83 ± 0.42
318.15 K | 20.32 ± 0.41
323.15 K | 19.79 ± 0.4
328.15 K | 19.28 ± 0.39

OCCN(CCO)CCO [triethanolamine]
[1]
Settings | relative permittivity at zero frequency
303.15 K | 28.11 ± 0.56
308.15 K | 27.41 ± 0.55
313.15 K | 26.73 ± 0.53
318.15 K | 26.07 ± 0.52
323.15 K | 25.41 ± 0.51
328.15 K | 24.8 ± 0.5
